Assay results reported in the NIST ThermoML archive (doi:10.1021/je7004038).
Numbers after ± are expanded uncertainties.

Settings: Crystal; visual observation

O=[N+]([O-])/N=C1\NCCN1Cc1ccc(Cl)nc1 [imidacloprid]
Normal melting temperature: 144.00 ± 0.68 °C
